Experimental data as given in paper PMC6681393, “Intra-Nasally Administered Oligopeptide Lunasin Acts as a Possible Anti-Psychotic Agent in Mice Models” (Medicina, 2019).
“Also recorded” adds a separate entry of the source.

What was measured:
[1] = tested on: amphetamine-induced hyperlocomotion in ICR mice; assay: Open field locomotor activity, amphetamine-induced hyperlocomotion; type: in vivo, male albino ICR mice; settings: for Locomotion (distance, cm): 15-min open field; for Locomotion (distance, cm) / effect on amphetamine hyperlocomotion: n = 7–8; as to Locomotion (distance, cm): key: ↑: increase; ↓: decrease; N: normalization; Nc: no changes
[2] = tested on: brain monoamine levels, DOI-treated mice; assay: Brain monoamines and metabolites, DOI-treated mice (UHPLC-TOF-MS); type: in vivo, male albino ICR mice; as to 5-HIAA (brain level, ng/g): key: ↑: increase; ↓: decrease; N: normalization; Nc: no changes; as to 5-HT (brain level, ng/g): key: ↑: increase; ↓: decrease; N: normalization; Nc: no changes; as to NA (brain noradrenaline level, ng/g): key: ↑: increase; ↓: decrease; N: normalization; Nc: no changes
[3] = tested on: dopamine D2 receptor subtype; settings: cited from earlier work
Text: (§1) Thus, lunasin at both doses normalized to control the level of behavioural changes after amphetamine in ...

[4] = tested on: dopamine D1 receptor subtype; settings: cited from earlier work
Text: as §1

[5] = tested on: amphetamine-induced hyper-locomotion; settings: direct central administration (intracisternally); cited from earlier work
Text: as §1

[6] = tested on: DOI-induced hyperlocomotion in ICR mice; assay: Open field locomotor activity, DOI-induced hyperlocomotion; type: in vivo, male albino ICR mice; settings: for effect on DOI hyperactivity (words): lunasin 1 nmol/mouse i.n., p = 0.0137
brain monoamine levels = assay: Brain monoamines and metabolites, lunasin per se (UHPLC-TOF-MS); type: in vivo, male albino ICR mice; settings: lunasin i.n. alone; for brain dopamine level, lunasin per se (words): p < 0.01
[7] = tested on: locomotion altered by ketamine; settings: central (intracisternal) injection; cited from earlier work
[8] = tested on: apomorphine-induced climbing activity; settings: direct central administration (intracisternally); cited from earlier work
5-HT2C receptor = assay: [125I]DOI binding displacement, 5-HT2C; set-up: species or system human; settings: for inhibition of [125I]DOI specific binding: mean of duplicates (n = 2)
Experimental: (§2) The binding assay was performed by Eurofins Cerep (France) according to Bryant et al., 1996 [15]. Briefly, the binding of lunasin to 5-HT2A and 5-HT2C receptors was estimated on its ability to displace the specific binding of [^125I]DOI on cell membrane suspensions of HEK-293 cells expressing human recombinant 5-HT2A and 5-HT2C receptors. The radioligand [^125I]DOI has high affinity for 5-HT2A (Kd: 0.3 nM) and 5-HT2C (Kd: 0.9 nM) receptors. Lunasin was tested at concentrations of 1, 10 and 100 µM. The results were expressed as a percent of radioligand specific binding (n = 2).

[9] = tested on: PCP-induced hyperlocomotion in ICR mice; assay: Open field locomotor activity, phencyclidine-induced hyperlocomotion; type: in vivo, male albino ICR mice; settings: lunasin 0.1 or 1 nmol/mouse i.n. after PCP 5 mg/kg i.p., n = 7–8
[10] = tested on: locomotor activity of ICR mice; assay: Open field locomotor activity, lunasin per se; type: in vivo, male albino ICR mice; settings: lunasin 0.1 or 1 nmol/mouse i.n. alone; 15-min test; n = 7–8
5-HT2A receptor = assay: [125I]DOI binding displacement, 5-HT2A; set-up: species or system human; settings: for inhibition of [125I]DOI specific binding: mean of duplicates (n = 2)
Experimental: as §2

[11] = tested on: brain monoamine levels, amphetamine-treated mice; assay: Brain monoamines and metabolites, amphetamine-treated mice (UHPLC-TOF-MS); type: in vivo, male albino ICR mice; settings: for amphetamine-altered brain noradrenaline level (words): lunasin 0.1 nmol/mouse i.n.
[12] = lunasin i.n., amphetamine-treated mice, dose not stated
[13] = lunasin 0.1 nmol/mouse i.n. + DOI 3 mg/kg i.p., n = 6–8
[14] = lunasin 1 nmol/mouse i.n. + DOI 3 mg/kg i.p., n = 6–8
[15] = lunasin 1 nmol/mouse i.n., p < 0.01
[16] = lunasin 0.1 and 1 nmol/mouse i.n., p < 0.0001
[17] = lunasin i.n., DOI-treated mice, dose not stated
[18] = 1 and 10 µM, HEK-293 cell membranes
[19] = lunasin 0.1 nmol/mouse i.n. + amphetamine 3 mg/kg i.p., n = 6–8
[20] = lunasin 1 nmol/mouse i.n. + amphetamine 3 mg/kg i.p., n = 6–8

With lunasin the “Locomotion (distance, cm)” value ([1]; lunasin 0.1 nmol/mouse i.n. 15 min after amphetamine 3 mg/kg i.p.) was “N”, the “effect on amphetamine hyperlocomotion” value ([1]; lunasin 0.1 nmol/mouse i.n., p = 0.0031) was “considerably decreased; also recorded: normalized to control the level of behavioural changes after amphetamine injection” and the “Locomotion (distance, cm)” value ([1]; lunasin 1 nmol/mouse i.n. 15 min after amphetamine 3 mg/kg i.p.) was “N”. The “effect on amphetamine hyperlocomotion” value ([1]; lunasin 1 nmol/mouse i.n., p = 0.0018) was “considerably decreased; also recorded: normalized to control the level of behavioural changes after amphetamine injection”, the “hyper-locomotion, summary” value [1, 12] was “fully normalized hyper-locomotion” and the “5-HIAA (brain level, ng/g)” value [2, 13] was “N”. The “5-HT (brain level, ng/g)” value [2, 13] was “N”, the “NA (brain noradrenaline level, ng/g)” value [2, 13] was “N” and the “5-HIAA (brain level, ng/g)” value [2, 14] was “N”. For the same substance, the “5-HT (brain level, ng/g)” value [2, 14] was “N”, the “HVA (brain level, ng/g)” value [2, 14] was “N” and the “NA (brain noradrenaline level, ng/g)” value [2, 14] was “N”. For the same substance, the “DOI-altered brain HVA level” value [2, 15] was “normalized the altered levels of HVA”, the “DOI-altered brain noradrenaline level” value ([2]; lunasin 0.1 and 1 nmol/mouse i.n. (both tested doses), p < 0.01) was “reversed amphetamine-induced and DOI-induced (both tested doses) noradrenaline alterations to the control values” and the “DOI-increased brain 5-HIAA level” value [2, 16] was “reversed the DOI up-regulated levels of serotonin and 5-HIAA almost to the control values; also recorded: fully normalized them to the control values”. For the same substance, the “DOI-increased brain serotonin level” value [2, 16] was “reversed the DOI up-regulated levels of serotonin and 5-HIAA almost to the control values; also recorded: fully normalized them to the control values”, the “brain monoamine levels, summary” value [2, 17] was “fully normalized hyper-locomotion and brain monoamine levels” and the “DOI-increased brain DOPAC level” value ([2]; lunasin i.n., dose not stated) was “These altered parameters were normalized by lunasin”. The “DOI-lowered brain HVA level” value ([2]; lunasin i.n., dose not stated) was “These altered parameters were normalized by lunasin”, the “DOI-lowered brain noradrenaline level” value ([2]; lunasin i.n., dose not stated) was “These altered parameters were normalized by lunasin” and the “dopamine D2 receptor binding” value [3] was “does not bind to the dopamine D2 receptor subtype”. For the same substance, the “dopamine D1 receptor affinity” value [4] was “has an affinity similar to that of dopamine”, the “amphetamine-induced hyper-locomotion” value [5] was “reduced amphetamine-induced hyper-locomotion” and the “Locomotion (distance, cm)” value ([6]; lunasin 1 nmol/mouse i.n. 15 min after DOI 3 mg/kg i.p., 15-min open field, n = 7–8) was “N”. The “effect on DOI hyperactivity (words)” value ([6]; n = 7–8) was “exerted protection against DOI-induced hyper-locomotion”, the “effect on DOI hyperactivity (words)” value ([6]; n = 7–8, listed as lunasin) was “decreased hyperactivity” and the “hyper-locomotion, summary” value [6, 17] was “fully normalized hyper-locomotion”. For the same substance, the “brain DOPAC concentration, lunasin per se” value (brain monoamine levels) was “Neither lunasin per se nor amphetamine changed the DOPAC concentration”, the “brain dopamine level, lunasin per se (words)” value (brain monoamine levels) was “significantly decreased dopamine level” and the “brain dopamine level, lunasin per se (words)” value (brain monoamine levels; listed as lunasin) was “significantly decreased dopamine levels”. For the same substance, the “effect on locomotion altered by ketamine” value [7] was “did not influence locomotion altered by ketamine”, the “apomorphine-induced climbing activity” value [8] was “reduced amphetamine-induced hyper-locomotion and apomorphine-induced climbing activity” and the “inhibition of [125I]DOI specific binding” value (5-HT2C receptor; 1 µM, HEK-293 cell membranes) was 4.7%. The “inhibition of [125I]DOI specific binding” value (5-HT2C receptor; 10 µM, HEK-293 cell membranes) was 10.3%, the “inhibition of [125I]DOI specific binding” value (5-HT2C receptor; 100 µM, HEK-293 cell membranes) was 59.7% and the “binding activity” value (5-HT2C receptor; 100 µM, compared with 5-HT2A) was “more considerable”. For the same substance, the “binding activity” value (5-HT2C receptor; [18]) was “did not show binding activity”, the “receptor affinity” value (5-HT2C receptor; compared with DOI, abstract) was “low affinity of lunasin (at µM concentrations)” and the “effect on PCP hyperlocomotion (words)” value [9] was “Phencyclidine behavioural effects were not influenced”. The “effect on PCP hyperlocomotion (words)” value ([9]; listed as lunasin) was “did not influence the PCP effect; also recorded: we did not find any influence of lunasin on PCP-induced hyperactivity”, the “effect of lunasin per se on locomotion” value [10] was “did not influence mouse activity” and the “inhibition of [125I]DOI specific binding” value (5-HT2A receptor; 1 µM, HEK-293 cell membranes) was 1.6%. For the same substance, the “inhibition of [125I]DOI specific binding” value (5-HT2A receptor; 10 µM, HEK-293 cell membranes) was 2.6%, the “binding activity” value (5-HT2A receptor; 100 µM) was “weak binding activity” and the “inhibition of [125I]DOI specific binding” value (5-HT2A receptor; 100 µM, HEK-293 cell membranes) was 32.5%. The “binding activity” value (5-HT2A receptor; [18]) was “did not show binding activity”, the “receptor affinity” value (5-HT2A receptor; compared with DOI, abstract) was “low affinity of lunasin (at µM concentrations)” and the “5-HIAA (brain level, ng/g)” value [11, 19] was “N”. The “DA (brain dopamine level, ng/g)” value [11, 19] was “N”, the “NA (brain noradrenaline level, ng/g)” value [11, 19] was “N” and the “amphetamine-altered brain noradrenaline level (words)” value ([11]; p < 0.01) was “reversed amphetamine-induced and DOI-induced (both tested doses) noradrenaline alterations to the control values”. For the same substance, the “amphetamine-altered brain noradrenaline level (words)” value ([11]; p < 0.01, listed as lunasin) was “normalized noradrenaline level to control values”, the “5-HIAA (brain level, ng/g)” value [11, 20] was “N” and the “5-HT (brain level, ng/g)” value [11, 20] was “N”. The “DA (brain dopamine level, ng/g)” value [11, 20] was “N”, the “HVA (brain level, ng/g)” value [11, 20] was “N” and the “amphetamine-altered brain HVA level” value ([11]; lunasin 1 nmol/mouse i.n., p < 0.001) was “normalized the altered levels of HVA; also recorded: reversed to control value the elevated levels of dopamine and its metabolite HVA”. The “amphetamine-increased brain serotonin level” value [11, 15] was “decreased the augmented serotonin; also recorded: fully normalized the levels of serotonin”, the “amphetamine-increased brain 5-HIAA level” value ([11]; lunasin 0.1 and 1 nmol/mouse i.n. (both doses), p < 0.0001) was “decreased the augmented serotonin (p < 0.01, Figure 2d) at both doses, as well as 5-HIAA levels; also recorded: fully normalized the levels of serotonin and its metabolite 5-HIAA (both tested doses)” and the “amphetamine-increased brain dopamine level” value [11, 16] was “reversed to control values; also recorded: reversed to control value the elevated levels of dopamine”. For the same substance, the “brain monoamine levels, summary” value [11, 12] was “fully normalized hyper-locomotion and brain monoamine levels”.
